Experimental data published in patent US9968605B2, “2-(2-methylamino-pyrimidin-4-yl)-1h-indole-5-carboxylic acid [(S)-1-carbamoyl-2-(phenyl-pyrimidin-2-yl-amino)-ethyl]-amide for use in the treatment of pain associated to osteoarthritis” (SANOFI, priority 2014, dated 2018).
“Also recorded” adds a separate entry of the source.

Key:
[1] = test system: patients with knee OA; experiment: Clinical trial: WOMAC index scores after a single intra-articular dose in patients with knee OA; type: in vivo, human; details: for Total WOMAC score, absolute change from baseline, Estimate / WOMAC subscore for Pain, absolute change from baseline, Estimate / WOMAC subscore for Physical function, absolute change from baseline, Estimate / WOMAC subscore for Stiffness, absolute change from baseline, Estimate: 60 mg single intra-articular dose; for Total WOMAC score, Compound A 60 mg vs Placebo, Estimate / WOMAC subscore for Pain, Compound A 60 mg vs Placebo, Estimate / WOMAC subscore for Physical function, Compound A 60 mg vs Placebo, Estimate / WOMAC subscore for Stiffness, Compound A 60 mg vs Placebo, Estimate: difference in change from baseline; for WOMAC subscore for Stiffness, Effect size (90% CI): vs placebo
Protocol: (§1) The objective of this study was to assess in patients with knee OA, the efficacy, safety and tolerability of a single intra-articular dose of Compound A.
(§2) This was a two-center, double-blind, randomized, placebo controlled, single dose study. Following a review of the safety data up to Day 28 from Part 1 of this study, the second part of the study assessed the efficacy of a single dose of Compound A, selected from the maximum administered/tolerated dose from Part 1 (60 mg), in relieving symptoms of patients with knee OA.
(§3) Screening was performed within 28 days of dosing. Following the single dose of study medication administered via intra-articular injection on Day 1, each patient remained at the Study Unit for 4 hours after dosing and, provided there was no difficulty with tolerability, patients were discharged and returned periodically for outpatient visits. Each patient was followed up to Day 168 (end-of-study visit); therefore the study period was 28 weeks.
Compound A was supplied as a lyophilized cake (to be reconstituted in water for injection for intra-articular administration) in vials containing 20, 40 and 80 mg total of active Compound A. The placebo was commercially available 0.9% saline solution for the injection.
The following sub-scales from the WOMAC Index were used to assess the activity of the drug upon pain, stiffness and physical function. Each item will be rated on the basis of the patient's symptoms over the last 48 h, by means of a 5 point Likert Scale: none, mild, moderate, severe, or very severe.
The primary endpoint was the WOMAC Pain sub-scale at Day 56 for evidence of efficacy (change from baseline).
Inclusion criteria are: • Diagnosis of primary knee osteoarthritis, based upon the following: • X-ray or MRI evidence within the last 6 months for joint space narrowing and osteophyte formation—patients will be Kellgren and Lawrence classification II/III, • Total WOMAC score 24-72 and • Fulfilling the American College of Rheumatology Clinical and Radiographic criteria for OA.
Analysis of Efficacy Variables:
Using the primary analysis efficacy population and for WOMAC sub-score for pain on Day 56, treatment mean differences (Compound A minus placebo) in change from baseline and their one-sided 95% upper limit of the confidence interval were computed using linear fixed effects models with fixed terms for treatment group and sex, and with an unstructured R variance/covariance matrix on treatment group for patient within sex blocks, using SAS Proc Mixed®. In case of convergence problems, other variance-covariance structures were explored.
The signs and symptoms of OA were measured with a standard instrument as WOMAC index.
WOMAC index consists of 24 questions in 3 dimensions subscales: • Pain subcale (5 items) • Stiffness subscale (2 items) • Physical function subscale (17 items)
Each item was rated by means of a 5 point Likert scale: none (=0), mild (=1), moderate (=2), severe (=3) and very severe (=4) A total WOMAC score and a WOMAC subscore for each dimension was calculated.
A supportive analysis to the primary analysis was conducted over patients from the efficacy population and with at least one post-dose WOMAC sub-score measurement, using a last observations carried forward (LOCF) approach up to Day 56.
The total WOMAC score and WOMAC sub-score for stiffness and physical function were analysed in the same way as for the primary analysis of WOMAC sub-score for pain.
The treatment mean difference between groups with their one-sided 95% upper limit of the CI was estimated for all other days for all scores. Time profile plots of treatment mean differences with their one-sided 95% upper limit of the CI were provided.
For each WOMAC score (total and sub-scores), the effect size based on the estimated (within the fixed effects model frameworks) mean treatment difference in change from baseline between groups (active versus placebo) were provided at each day with their corresponding 95% CI.

[2] = test system: patients with knee OA; experiment: as above; type: in vivo, human; details: Day 56; vs placebo; efficacy population (all patients); negative = positive effect of drug
[3] = test system: patients with knee OA; experiment: Clinical trial: safety and tolerability of a single intra-articular dose in patients with knee OA; type: in vivo
Protocol: as §1, §2, §3
Safety was assessed by adverse event (AE) monitoring, standard clinical laboratory evaluations, physical examination, vital sign and electrocardiogram (ECG) assessments, local tolerability at site of injection and assessments of the knee joint (effusion/worsening of effusion).
The safety analysis was based on the review of descriptive statistics and individual data for AEs, clinical laboratory, vital signs, and ECG parameters. Adverse events were coded according to the Medical Dictionary for Regulatory Activities (version 15.1) and the numbers of subjects with treatment-emergent AEs (TEAEs) were tabulated (counts and percents). For clinical laboratory, vital signs, and ECG data, the analyses of abnormalities were based on the definitions of potentially clinically significant abnormalities (PCSAs; definitions according to version 2.0 dated 14 Sep. 2009). Local tolerance/tolerability at the site of injection was summarized by descriptive statistics.

[4] = Day 56, efficacy population (all patients)
[5] = Day 56, patients with effusion at baseline

In the case of `CNc1nccc(-c2cc3cc(C(=O)N[C@@H](CN(c4ccccc4)c4ncccn4)C(N)=O)ccc3[nH]2)n1` [Compound A, 2-(2-methylamino-pyrimidin-4-yl)-1H-indole-5-carboxylic acid [(S)-1-carbamoyl-2-(phenyl-pyrimidin-2-yl-amino)-ethyl]-amide], the “Total WOMAC score, absolute change from baseline, Estimate” value [1, 4] is reported as −10.5566, the “WOMAC subscore for Pain, absolute change from baseline, Estimate” value [1, 4] is reported as −1.8229 and the “WOMAC subscore for Physical function, absolute change from baseline, Estimate” value [1, 4] is reported as −7.7966. The “WOMAC subscore for Stiffness, absolute change from baseline, Estimate” value [1, 4] was −0.9406, the “Total WOMAC score, absolute change from baseline, Estimate” value [1, 5] was −17.0761 and the “WOMAC subscore for Pain, absolute change from baseline, Estimate” value [1, 5] was −2.9701. The “WOMAC subscore for Physical function, absolute change from baseline, Estimate” value [1, 5] was −12.9658, the “WOMAC subscore for Stiffness, absolute change from baseline, Estimate” value [1, 5] was −1.1672 and the “effect sizes for WOMAC subscores” value ([1]; Day 56, all patients, negative indicates a positive effect of drug against placebo) was 0.12 to −0.04. For the same compound, the “Total WOMAC score, Compound A 60 mg vs Placebo, Estimate” value [1, 4] was 1.0495, the “WOMAC subscore for Pain, Compound A 60 mg vs Placebo, Estimate” value [1, 4] was 0.4554 and the “WOMAC subscore for Physical function, Compound A 60 mg vs Placebo, Estimate” value [1, 4] was 0.6854. The “WOMAC subscore for Stiffness, Compound A 60 mg vs Placebo, Estimate” value [1, 4] was −0.0573, the “Total WOMAC score, Compound A 60 mg vs Placebo, Estimate” value [1, 5] was −9.3562 and the “WOMAC subscore for Pain, Compound A 60 mg vs Placebo, Estimate” value [1, 5] was −1.7213. The “WOMAC subscore for Physical function, Compound A 60 mg vs Placebo, Estimate” value [1, 5] was −6.8188, the “WOMAC subscore for Stiffness, Compound A 60 mg vs Placebo, Estimate” value [1, 5] was −0.9028 and the “effect on WOMAC Pain subscores, other WOMAC subscores or Total score” value ([1]; Day 56, efficacy population (all patients), 60 mg) was “neither a clinically significant nor a statistically significant effect”. The “WOMAC subscore for Stiffness, Effect size (90% CI)” value ([1]; Day 56, efficacy population (all patients), negative = positive effect of drug) was −0.04, the “WOMAC subscore for Stiffness, Effect size (90% CI)” value [1, 5] was −0.71 and the “efficacy on pain in patients with knee osteoarthritis and effusion (WOMAC assessment)” value ([1]; subgroup of patients with effusion at baseline) was “significant efficacy; also recorded: significant effect”. For the same compound, the “Total WOMAC score, Effect size (90% CI)” value [2] was 0.06, the “WOMAC subscore for Pain, Effect size (90% CI)” value [2] was 0.12 and the “WOMAC subscore for Physical function, Effect size (90% CI)” value [2] was 0.06. The “reported TEAEs and their severity, including local reactions at the injection site, vs placebo (0.9% saline)” value ([3]; 60 mg single intra-articular dose) was “no difference between Compound A and placebo”, the “tolerability of single doses” value ([3]; 60 mg single intra-articular dose, patients with knee OA) was “well tolerated” and the “most frequent TEAE” value ([3]; after administration of Compound A or placebo, followed by injection site reactions) was “Arthralgia”.
